Assay results: patent US20260216166A1, “COMPOUND FOR TREATMENT OF ERECTILE DYSFUNCTION” (Initiator Pharma A/S, priority 2023, published 2026)

Tested on: male patients with ED
Assay: RigiScan assessment during visual stimulus challenge in male patients with ED
Type: in vivo, human
Parameters: individual RAU value at the base / individual TAU value at the tip / individual RAU value at the tip / individual TAU value at the base: unit not given here
From the text: The RigiScan Plus Monitor consists of two loops, one to be placed around the base of the penis and the other towards the tip. The ambulatory monitor uses tip and base penile loops that adjust by tightening slightly at discrete time intervals to measure and record penile rigidity and tumescence. Each loop contains a cable that moves freely inside a conduit. Each loop takes a measurement every 15 seconds. The loop gently tightens with a linear force of 4 ounces (114 g) and then immediately releases and the tissue rebounds to its unloaded state. The RigiScan Plus Monitor then takes a tumescence measurement. After the tumescence measurement is taken, it is compared to the previous samples. When a 6 mm increase in tumescence is detected, representing possible erectile activity, the RigiScan Plus Monitor takes a second measurement every 30 seconds. After tumescence is measured, the loops tighten a second time around the circumference of the penis with a linear force of 10 ounces (283.5 g). The RigiScan Plus Monitor takes a measurement when this force is applied to record a cross sectional response to radial compression. This is how rigidity is measured^1. Data were recorded on a monitor strapped to the thigh of the subjects/participants and downloaded onto a computer after the recording session. Subjects/participants were instructed on how to self-apply the RigiScan Plus Monitor by the Investigator and were advised to wear loose fitting clothing during the residential stay at the unit.
The study was an exploratory Phase II, randomised, placebo-controlled, double-blind, crossover study, investigating the effects of a single oral dose of IP2015 on erectile function in males with ED. A dose level of 10 mg was selected. Patients were enrolled into two cohorts. Both cohorts participated in two periods (Period 1 and Period 2) and received a single dose of IP2015 and a single dose of placebo.
Patients were assessed for efficacy using the RigiScan Plus Monitor during the stimulus challenge at predose and 1, 4 and 8-hour postdose on Day 1 of each treatment period.
The design of the stimulus challenge is outlined in FIG. 3. Predose and 1, 4 and 8-hour postdose, the patients were asked to watch a 20-minute digital clip in a private room. The digital clip consisted of a 10-minute neutral digital clip followed by a 10-minute digital clip consisting of heterosexual pornography. The study staff started the digital clip and then left the room, during which there was a 1-minute delay before the neutral digital clip commenced. The neutral and pornographic digital clip were different at each assessment. RigiScan assessments were recorded through the assessment period. The RigiScan Plus Monitor was applied for approximately 20 minutes on each occasion. The patient was semi-recumbent during the assessment.
The RigiScan measurement parameters were treated as efficacy outcomes and calculated in a similar fashion as in Example 2.
Effects of IP2015 on PD parameters were analysed with a generalised mixed regression model using a PD parameter as responsible variable, treatment (active and placebo), timepoint, period (1 and 2), sequence (active-placebo, placebo-active), interaction between treatment and timepoint as mixed effects, baseline measurements as a covariate, and patient as a random effect. This model was applied to each PD parameter. The treatment difference between active and placebo at different timepoints together with 95% CIs was derived from the generalized mixed regression model. For a continuous outcome, treatment difference was measured as the difference in LS mean; for a binary outcome, treatment difference was measured as the odds ratio. In case of model non-convergence due to small sample size at some timepoints, those timepoints could be pooled with neighbouring timepoints.

[1] = 10 mg, 4 hours postdose, N = 12
[2] = 10 mg, 4 hours postdose, statistically significant

Question: Which results are given for `COc1cc2ccc(OC3CC4CCC(C3)N4)cc2oc1=O` (stereo not drawn) [IP2015, 7-[(8-azabicyclo[3.2.1]octan-3-yl)oxy]-3-methoxy-chromen-2-one]?
Answer: baseline circumference at the tip, LS mean difference compared to placebo (10 mg, 1 hour postdose, 95% CI: 0.02, 1.05, significantly higher): 0.53; Average event rigidity, Base, LS Mean Difference of IP2015 − Placebo (10 mg, 4 hours postdose): 6.92%; Average event rigidity, Tip, LS Mean Difference of IP2015 − Placebo (10 mg, 4 hours postdose): 10.21%; Average events of tumescence, Base, LS Mean Difference of IP2015 − Placebo (10 mg, 4 hours postdose): 1.05; Average events of tumescence, Tip, LS Mean Difference of IP2015 − Placebo (10 mg, 4 hours postdose): 1.05; Baseline circumference, Base, LS Mean Difference of IP2015 − Placebo (10 mg, 4 hours postdose): −0.28; Baseline circumference, Tip, LS Mean Difference of IP2015 − Placebo (10 mg, 4 hours postdose): −0.21; Event duration, LS Mean Difference of IP2015 − Placebo (10 mg, 4 hours postdose): 8.20 % of session; RAU, Base, LS Mean Difference of IP2015 − Placebo (10 mg, 4 hours postdose): 2.33; TAU, Tip, LS Mean Difference of IP2015 − Placebo (10 mg, 4 hours postdose): 1.42; Time rigid 80-100%, Base, LS Mean Difference of IP2015 − Placebo (10 mg, 4 hours postdose): 0.03; Total event duration, LS Mean Difference of IP2015 − Placebo (10 mg, 4 hours postdose): 0.05 min; Total events, LS Mean Difference of IP2015 − Placebo (10 mg, 4 hours postdose): 0.03; time rigid 80%-100% at the tip, RAU at the tip and TAU at the base versus placebo (10 mg, 4 hours postdose): statistically significant compared to placebo; patients appearing to respond to treatment (individual RAU and TAU values) (10 mg, 4 hours postdose, 12 patients): 3; Average event rigidity, Base, Mean (SD) [1]: 20.83 (30.61) %; Average event rigidity, Tip, Mean (SD) [1]: 19.58 (29.42) %; Average events of tumescence, Base, Mean (SD) [1]: 3.49 (4.35); Average events of tumescence, Tip, Mean (SD) [1]: 3.33 (4.16); Baseline circumference, Base, Mean (SD) [1]: 7.21 (1.54); Baseline circumference, Tip, Mean (SD) [1]: 6.82 (1.16); Event duration, Mean (SD) [1]: 17.75 (27.72) % of session; RAU, Base, Mean (SD) [1]: 3.50 (6.82); RAU, Tip, Mean (SD) [1]: 3.25 (6.25); TAU, Base, Mean (SD) [1]: 2.83 (4.97); TAU, Tip, Mean (SD) [1]: 2.17 (3.59); Time rigid 80-100%, Base, Mean (SD) [1]: 0.04 (0.11); Time rigid 80-100%, Tip, Mean (SD) [1]: 0.04 (0.10); Total event duration, Mean (SD) [1]: 0.09 (0.14) mins; Total events, Mean (SD) [1]: 0.42 (0.51); RAU, Tip, LS Mean Difference of IP2015 − Placebo [2]: 2.54; TAU, Base, LS Mean Difference of IP2015 − Placebo [2]: 1.95; Time rigid 80-100%, Tip, LS Mean Difference of IP2015 − Placebo [2]: 0.03; individual RAU value at the base (Patient 176, 4 hours postdose): 21; individual RAU value at the tip (Patient 176, 4 hours postdose): 19; individual TAU value at the base (Patient 176, 4 hours postdose): 14; individual TAU value at the tip (Patient 176, 4 hours postdose): 8; individual RAU value at the base (Patient 177, 4 hours postdose): 14; individual RAU value at the tip (Patient 177, 4 hours postdose): 13; individual TAU value at the base (Patient 177, 4 hours postdose): 11; individual TAU value at the tip (Patient 177, 4 hours postdose): 9; individual RAU value at the base (Patient 191, 4 hours postdose): 4; individual RAU value at the tip (Patient 191, 4 hours postdose): 5; individual TAU value at the base (Patient 191, 4 hours postdose): 7; individual TAU value at the tip (Patient 191, 4 hours postdose): 7
